Test results taken from ChEMBL document CHEMBL4651402, “Screening of ~5500 FDA-approved drugs and clinical candidates for anti-SARS-CoV-2 activity” (2021).

System: SARS-CoV-2
Experiment: microbe, parasite or virus in culture
Settings: Severe acute respiratory syndrome coronavirus 2, Vero C1008, 48 h

SMILES	IC50 [µM]	IC50 (read-out: pIC50 (converted)) [µM]
O=c1ncn2nc(Sc3ccc(F)cc3F)ccc2c1-c1c(Cl)cccc1Cl [NEFLAMAPIMOD]	> 20	> 20
COc1cc2c(c(OC)n1)[C@]1(O)[C@H](O)[C@H](CN(C)C)[C@@H](c3ccccc3)[C@]1(c1ccc(C#N)cc1)O2 [ZOTATIFIN]	> 20	> 20
CN1CC(O)C2=CC(=NNC(N)=O)C(=O)C=C21 (stereo not given)	> 20	> 20
COc1cc2c(cc1OC)-c1cc3ccc(OC)c(OC)c3c[n+]1CC2 [PALMITINE]	> 20	> 20
CCCCCCCCCCCC[N+](C)(C)CCOc1ccccc1 [DOMIPHEN]	> 20	> 20
O=C(O)c1cccc(-c2noc(-c3ccccc3F)n2)c1	> 20	> 20
CC(C)C[C@H]1C(=O)N2CCC[C@H]2[C@]2(O)O[C@](NC(=O)[C@@H]3C=C4c5cccc6[nH]c(Br)c(c56)CC4N(C)C3)(C(C)C)C(=O)N12 (stereo not given in full)	> 20	> 20
CNCC(O)c1ccc(O)c(O)c1 (stereo not given) [RACEPINEPHRINE]	> 20	> 20
CC(C)OC(=O)OCOP(=O)(CO[C@H](C)Cn1cnc2c(N)ncnc21)OCOC(=O)OC(C)C [TENOFOVIR DISOPROXIL]	> 20	> 20
Cc1nc(COc2ccc(C[C@H](NC(=O)O[C@H]3CO[C@H]4OCC[C@H]43)[C@H](O)CN(CC(C)C)S(=O)(=O)c3ccc4c(c3)OCO4)cc2)cs1 [BRECANAVIR]	> 20	> 20
CNCC(=O)c1ccc(O)c(O)c1 [ADRENALONE]	> 20	> 20
C[C@H](CCC(=O)O)[C@H]1CC[C@H]2[C@@H]3[C@@H](O)C[C@@H]4C[C@H](O)CC[C@]4(C)[C@H]3C[C@H](O)[C@]12C	> 20	> 20
Cc1cc(=O)oc2cc(O)cc(O)c12 [5,7-DIHYDROXY-4-METHYLCOUMARIN]	> 20	> 20
Cc1ncc([N+](=O)[O-])n1CCOC(N)=O [BAMNIDAZOLE]	> 20	> 20
CC(=O)Nc1ccc(/C=N/NC(N)=S)cc1 [AMITHIOZONE]	> 20	> 20
Cc1cccc(Cl)c1C(=O)N[C@@H](Cc1ccc(NC(=O)c2c(Cl)cccc2Cl)cc1)C(=O)O	> 20	> 20
N=C(NO)N/N=C/c1c(Cl)cccc1Cl [GUANOXABENZ]	> 20	> 20
Cc1nc(C2CCCCC2)c(-c2ccc(S(N)(=O)=O)c(F)c2)o1 [TILMACOXIB]	> 20	> 20
NS(=O)(=O)c1cc2c(cc1Cl)N=C(CSCc1ccccc1)NS2(=O)=O [BENZTHIAZIDE]	> 20	> 20
C/C=C1/C[C@@H](C)[C@](O)(CO)C(=O)OCC2=CCN3CC[C@@H](OC1=O)[C@@H]23	> 20	> 20

SMILES	IC50 [µM]	IC50 (read-out: pIC50 (converted)) [µM]
NS(=O)(=O)c1ccc(C(=O)O)cc1 [CARZENIDE]	> 20	> 20
Cc1ccc2c(=O)c3cccc(CC(=O)O)c3oc2c1C [VADIMEZAN]	> 20	> 20
CC(C)NCC(O)COc1ccc(CCOCC2CC2)cc1 (stereo not given) [BETAXOLOL]	> 20	> 20
CC(=O)Nc1cc2ccccc2oc1=O	> 20	> 20
Cc1cc(C(=O)NNCc2ccccc2)no1 [ISOCARBOXAZID]	> 20	> 20
NC(=O)c1cnccn1 [PYRAZINAMIDE]	> 20	> 20
Oc1cc(O)c2cc(O)c(-c3ccc(O)c(O)c3)[o+]c2c1 [CYANIDIN]	> 20	> 20
CNC(=O)NC(O)C(Cl)(Cl)Cl (stereo not given) [MECLORALUREA]	> 20	> 20
NCc1ccccc1CC(=O)N[C@@H]1C(=O)N2C(C(=O)O)=C(CSc3nnnn3CC(=O)O)CS[C@H]12 [CEFORANIDE]	> 20	> 20
Cc1cc(C)c2c3ccccc3n(Cc3ccc([C@@H](C(=O)N[C@@H](CO)c4ccccc4)C4CCCC4)cc3)c2n1	> 20	> 20
CCOC(=O)C(COC(=O)Cc1ccc(NC(=O)c2ccccc2-c2ccc(C(F)(F)F)cc2)c(C(=O)N(C)C)c1)(C(=O)OCC)c1ccccc1 [GRANOTAPIDE]	> 20	> 20
Cn1c(=O)c2nc[nH]c2n(C)c1=O [THEOPHYLLINE]	> 20	> 20
Cn1c(NCCN(CCO)CCCc2ccc([N+](=O)[O-])cc2)cc(=O)n(C)c1=O [NIFEKALANT]	> 20	> 20
CCCCC(C(=O)O)C(=O)N(Nc1ccccc1)c1ccccc1 (stereo not given) [BUMADIZONE]	> 20	> 20
CCn1cc(C(=O)O)c(=O)c2cc(F)c(N3CCNCC3)nc21 [ENOXACIN]	> 20	> 20
CNS(=O)(=O)Cc1ccc2[nH]cc(CCN(C)C)c2c1	> 20	> 20
c1ccc(CC2=NCCN2)cc1 [TOLAZOLINE]	> 20	> 20
Nc1nc(=O)n([C@H]2C[C@H](O)[C@@H](CO)O2)cc1I [IBACITABINE]	> 20	> 20
O=C1CN=C(c2ccccc2Cl)c2cc(Cl)ccc2N1 [DELORAZEPAM]	> 20	> 20
CC(C)N(CCC(c1ccccc1)c1ccccc1)C(C)C [DIISOPROMINE]	> 20	> 20

SMILES	IC50 [µM]	IC50 (read-out: pIC50 (converted)) [µM]
O=P(O)(O)OCC(O)CO (stereo not given)	> 20	> 20
CCN(CC)Cc1cc(Nc2ccnc3cc(Cl)ccc23)ccc1O [AMODIAQUINE]	> 20	> 20
C=C1CC2C3C=C(C)C4=CC(=O)CCC4(C)C3CCC2(C)C1(OC(C)=O)C(C)=O (stereo not given)	> 20	> 20
O=C(Nc1c[nH]nc1-c1nc2ccc(CN3CCOCC3)cc2[nH]1)NC1CC1 [AT-9283]	> 20	> 20
O=C1Nc2ccc(I)cc2/C1=C/c1cc(Br)c(O)c(Br)c1	> 20	> 20
C[C@@H]1C(=O)O[C@H]2C[C@@]34[C@H]5C[C@@H](C(C)(C)C)[C@]36[C@@H](OC(=O)[C@@H]6O)O[C@@]4(C(=O)O5)[C@]21O [GINKGOLIDE A]	> 20	> 20
CC(C)Cc1ccc(CC(=O)O)cc1 [IBUFENAC]	> 20	> 20
Clc1ccc(Nc2nnc(Cc3ccncc3)c3ccccc23)cc1 [VATALANIB]	> 20	> 20
C[N+](C)(Cc1ccc(NC(=O)c2ccc(Cl)c(Cl)c2)cc1)C1CCOCC1 [JNJ-17166864 CATION]	> 20	> 20
N#CC(c1ccc(F)cc1)c1c(Cl)cc(-n2ncc(=O)[nH]c2=O)cc1Cl (stereo not given) [LETRAZURIL]	> 20	> 20
CC(=O)Oc1cc(O[C@H](C)CCCc2ccccc2)cc2c1[C@@H]1C[C@H](O)CC[C@H]1[C@H](C)N2 [LEVONANTRADOL]	> 20	> 20
CN1CCN(CCCCN2C(=O)CN(/N=C/c3ccc(-c4ccc(Cl)cc4)o3)C2=O)CC1 [AZIMILIDE]	> 20	> 20
NC1=NCC(c2ccc(C(F)(F)F)cc2)O1 (stereo not given) [FLUMINOREX]	> 20	> 20
COC(=O)CC(O)(CCC(C)(C)O)C(=O)OC1C(OC)=CC23CCCN2CCc2cc4c(cc2C13)OCO4 (stereo not given)	> 20	> 20
OCc1ccc(Cl)cc1Cl [DICHLOROBENZYL ALCOHOL]	> 20	> 20
CN[C@H](CC(C)C)C(=O)N[C@H]1C(=O)N[C@@H](CC(N)=O)C(=O)N[C@H]2C(=O)N[C@H]3C(=O)N[C@H](C(=O)N[C@H](C(=O)O)c4cc(O)cc(O)c4-c4cc3ccc4O)[C@H](O)c3ccc(c(Cl)c3)Oc3cc2cc(c3O[C@@H]2O[C@H](CO)[C@@H](O)[C@H](O)[C@H]2O[C@H]2C[C@](C)(N)[C@H](O)[C@H](C)O2)Oc2ccc(cc2Cl)[C@H]1O [VANCOMYCIN]	> 20	> 20
COc1nc2ccc(Br)cc2cc1[C@@H](c1ccccc1)[C@@](O)(CCN(C)C)c1cccc2ccccc12 [BEDAQUILINE]	> 20	> 20
OC[C@H]1O[C@@H](n2cnc3c(NCc4ccco4)ncnc32)[C@H](O)[C@@H]1O [KINETIN RIBOSIDE]	> 20	> 20
O=c1[nH]cnc2c1ncn2[C@@H]1O[C@H](CO)[C@@H](O)[C@H]1O [INOSINE]	> 20	> 20
OC(CCCN1CCN(c2ncc(F)cn2)CC1)c1ccc(F)cc1 (stereo not given) [BMY-14802]	> 20	> 20
